Tested on: Subjects With Active Crohn's Disease With Evidence of Mucosal Ulceration
Test: Study 3 - CRP levels (pharmacodynamics)
Type: in vivo, human
Details: 200 mg; week 10; LOCF
Excerpt: Double-Blind, Randomized, Placebo-Controlled, Multi-Centre Study to Investigate the Efficacy and Safety of Compound 1 in Subjects With Active Crohn's Disease With Evidence of Mucosal Ulceration. This is a double-blind, randomized, placebo-controlled, multi-centre Phase 2 study to investigate the efficacy and safety of Compound 1 administered once daily for the treatment of active CD with evidence of mucosal ulceration. The pharmacokinetics (including a PK substudy) and pharmacodynamics of Compound 1 and metabolite in CD will also be characterised. A total of 180 eligible subjects will be randomized to receive Compound 1 or placebo in addition to their stable background treatment (eg, corticosteroids, aminosalicylates, or CD-related antibiotics). The study will consist of 2 parts, with total treatment duration of 20 weeks. Randomization in Part 1 will be stratified according the subject's previous anti-TNF exposure/response, CRP level at Screening, and oral corticosteroid use at visit Day −1. After the first 10 weeks of treatment in Part 1, patients will be re-randomized for Part 2 as shown in the diagram below and will be stratified according to the subject's clinical response, previous anti-TNF exposure/response, and oral corticosteroid use at visit Day -1. [table] CRP determination is available at Quest Diagnostics, Clinical Trials, Quest House, 125-135 Staines Road, Hounslow, Middlesex, TW3 3JB, United Kingdom under Catalogue n#86140. The determination of CRP is made using Immunoturbidimetric assay for the in vitro quantitative determination of CRP in human serum and plasma on Roche/Hitachi cobas c systems, wherein human CRP agglutinates with latex particles coated with monoclonal anti-CRP antibodies. The aggregates are determined turbidimetrically (Eda et al., 1998; Price et al., 1987). Human serum and plasma samples CRP determination was done on a Roche/Hitachi Cobas c 301 c 501/502 system which automatically calculate the analyte concentration of each sample. Samples containing precipitates are centrifuged before performing the assay. CRP levels are determined as previously described in section 3.6

## O=C(Nc1nc2cccc(-c3ccc(CN4CCS(=O)(=O)CC4)cc3)n2n1)C1CC1 [Compound 1, cyclopropanecarboxylic acid {5-[4-(1,1-dioxo-thiomorpholin-4-ylmethyl)-phenyl]-[1,2,4]triazolo[1,5-a]pyridin-2-yl}-amide]
  Serum CRP mean, % CFB: 53%
  Serum CRP mean, CFB: -1.0 mg/L
  Serum CRP median, % CFB: −10%
  Serum CRP median, CFB: -0.4 mg/L
  Serum CRP normalizing high to normal (<0.80 mg/dL), % subjects normalizing: 27%

From patent publication US20180200257A1, “METHODS FOR THE TREATMENT OF INFLAMMATORY DISORDERS” (Galapagos NV, priority 2015, published 2018)
